For orientation: IC50 means the point on the concentration scale where inhibition reaches its midpoint. A higher IC50 goes with a need for much substance.

These results are taken from patent US20240299558A1, “PROTEOLYSIS TARGETING CHIMERAS AND POLYPHARMACOLOGICAL AGENTS TARGETING BCL-2, AND METHODS OF USE THEREOF” (University of Maryland, Baltimore, priority 2021, published 2024).

In experiment [1] the test system is MOLM14 AML cells. As to the kind of experiment: Luc-labelled MOLM14 AML xenograft pilot experiment in NRG mice. As to conditions: two 5d PO treatment cycles (d1-5, d21-25), imaging d7, d14, d21, 5 mice/group.
Method: Statistical analyses are conducted using GraphPad software. AML burden is quantified using log transformed ratio of luminescence at d7/14/21 vs do for each mouse (fold-change); groups are compared using the appropriate parametric (ANOVA; t-test, etc) or non-parametric alternative as necessary (Wilcoxon rank sum, Kruskal-Wallis). For time-to-event endpoints, Kaplan-Meier survival of groups are compared using the log-rank test. p<0.05 is considered statistically different.
On d0, after Xenogen quantification of baseline total body luminescence (AML burden), groups of 5 AML-bearing mice were treated on days 1-5, per previously established MTD PO×5d schedule, with VEN (150 mg/kg/d PO×5), as monotherapy or co-administered with SOR (30 mg/kg/d PO×5), ART (50 mg/kg/d PO×5), and/or ASP (200 IU/kg IP single dose). A second identical drug cycle was administered on d21-25. On d7, d14 and d21, each mouse was Xenogen imaged for total body luminescence, fold-change AML burden from do was calculated for each mouse, and mean (+/−SD) fold-change for each experimental group plotted.
Experiment [2] addresses BCL-2^1-211 (Homo sapiens, UniProt P10415). As to the kind of experiment: Fluorescence polarization competition assay (FPCA), FITC-Bak competed off BCL-2. Type of experiment: binding. The method, then: Fluorescence polarization assays were performed in 96 well polypropylene F-bottom black microplates (Greiner Bio-One) with a final volume of 100 μL. […] The changes in the fluorescence polarization were then measured using a BMG PHERAstar FS multimode microplate reader equipped with two PMTs for simultaneous measurements of both the perpendicular and parallel fluorescence emission at a 485 nm excitation and 520 nm emission filter.
The fluorescence polarization competition assays were setup using a Biomek FXP Automated Liquid Handling System. […] The IC50 values were then converted to Ki values using an equation derived by Nikolovska-Coleska et al. All inhibitors were tested in triplicate.
(Fluorescence polarisation rises when a labelled molecule tumbles more slowly, as on binding a larger partner.)

A value given as a limit tells only on which side of the number the result lay.

BCL-2^1-211, sequence (P10415 1-211): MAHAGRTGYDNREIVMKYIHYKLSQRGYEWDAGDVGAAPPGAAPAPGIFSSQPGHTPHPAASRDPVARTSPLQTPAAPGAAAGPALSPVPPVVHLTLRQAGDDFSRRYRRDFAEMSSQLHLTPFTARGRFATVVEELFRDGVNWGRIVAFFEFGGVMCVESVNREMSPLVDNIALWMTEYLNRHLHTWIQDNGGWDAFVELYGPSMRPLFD

Consider PEGylated L-asparaginase, for which the “AML burden over time (fold-change total body luminescence) vs vehicle” value in experiment [1] is “minimal activity”. The compound `CC1(C)CCC(CN2CCN(c3ccc(C(=O)NS(=O)(=O)c4ccc(NCCOCCOCCNC(=O)C(c5ccccc5)c5ccccc5)c([N+](=O)[O-])c4)c(Oc4cnc5[nH]ccc5c4)c3)CC2)=C(c2ccc(Cl)cc2)C1` [CG-2-132] returned an IC50 in experiment [2] below 20 nM. Consider `CNC(=O)c1cc(Oc2ccc(NC(=O)Nc3ccc(Cl)c(C(F)(F)F)c3)cc2)ccn1` [Sorafenib], for which the “AML burden over time (fold-change total body luminescence) vs vehicle” value in experiment [1] is “reduced AML burden only moderately”; in experiment [1] (listed as SOR) it was “significant difference in AML burden only at d7 and d14”.

`CC(C)Cc1ccc([C@@H](C)C(=O)NCCOCCOCCNc2ccc(S(=O)(=O)NC(=O)c3ccc(N4CCN(CC5=C(c6ccc(Cl)cc6)CC(C)(C)CC5)CC4)cc3Oc3cnc4[nH]ccc4c3)cc2[N+](=O)[O-])cc1` [CG-3-005] displayed an IC50 in experiment [2] below 20 nM.

The compound `CC1(C)CCC(CN2CCN(c3ccc(C(=O)NS(=O)(=O)c4ccc(NCCNC(=O)CC56CC7CC(CC(C7)C5)C6)c([N+](=O)[O-])c4)c(Oc4cnc5[nH]ccc5c4)c3)CC2)=C(c2ccc(Cl)cc2)C1` [SF-7-330] showed an IC50 in experiment [2] below 20 nM.
